IC50 data for one substance are collected here from publication PMC7601413, “Protein Disulphide Isomerase A1 Is Involved in the Regulation of Breast Cancer Cell Adhesion and Transmigration via Lung Microvascular Endothelial Cells” (Cancers, 2020).

In experiment [1] the target is T1, PDIA1 (protein disulphide isomerase A1) (Homo sapiens, UniProt P07237).
T1 construct: gene P4HB; recombinant, full length, 18-508aa, His-tag, E. coli
As to the kind of experiment: insulin reduction turbidimetric assay with recombinant enzyme. The experiment is classed as biochemical. The settings on record: read-out: Enzymatic Activity, % of Initial / PDIA1.

The target in experiment [2] is T2, PDIA3 (Homo sapiens, UniProt P30101).
T2 construct: recombinant, 25-505aa, His-tag, E. coli
T2 sequence (P30101 25-505): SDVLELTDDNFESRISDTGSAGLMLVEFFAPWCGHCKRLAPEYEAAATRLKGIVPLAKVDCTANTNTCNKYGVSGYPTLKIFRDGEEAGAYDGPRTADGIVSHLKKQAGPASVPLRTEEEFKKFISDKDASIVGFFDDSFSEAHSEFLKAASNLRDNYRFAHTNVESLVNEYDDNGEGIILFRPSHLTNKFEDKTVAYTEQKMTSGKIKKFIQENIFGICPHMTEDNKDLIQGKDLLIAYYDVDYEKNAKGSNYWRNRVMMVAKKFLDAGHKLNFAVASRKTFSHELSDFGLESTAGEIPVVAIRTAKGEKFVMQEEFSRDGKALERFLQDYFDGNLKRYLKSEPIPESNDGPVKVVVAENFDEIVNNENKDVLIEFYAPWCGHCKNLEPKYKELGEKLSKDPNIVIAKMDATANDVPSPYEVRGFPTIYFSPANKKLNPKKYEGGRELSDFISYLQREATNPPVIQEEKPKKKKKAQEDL
Described as above. In kind it is biochemical. The settings on record: read-out: Enzymatic Activity, % of Initial / PDIA3.

T1 sequence (P07237 18-508): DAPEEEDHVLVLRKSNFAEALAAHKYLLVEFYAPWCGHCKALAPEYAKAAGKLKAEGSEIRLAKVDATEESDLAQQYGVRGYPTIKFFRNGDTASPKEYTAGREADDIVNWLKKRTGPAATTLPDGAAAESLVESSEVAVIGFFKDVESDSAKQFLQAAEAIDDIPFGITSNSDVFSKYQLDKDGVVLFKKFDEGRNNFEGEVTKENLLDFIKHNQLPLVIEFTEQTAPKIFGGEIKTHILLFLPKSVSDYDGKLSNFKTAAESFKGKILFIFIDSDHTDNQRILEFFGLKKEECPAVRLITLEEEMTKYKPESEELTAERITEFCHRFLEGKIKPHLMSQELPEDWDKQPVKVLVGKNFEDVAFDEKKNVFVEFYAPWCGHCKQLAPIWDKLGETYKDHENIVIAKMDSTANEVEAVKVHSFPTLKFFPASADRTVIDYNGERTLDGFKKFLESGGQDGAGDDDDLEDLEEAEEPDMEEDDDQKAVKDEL

bepristat 2a: the IC50 in experiment [1] was determined as 2.1 µM; in experiment [2], 127 µM.
